The record followed here is PMC8956665, “Structural and molecular rationale for the diversification of resistance mediated by the Antibiotic_NAT family” (Communications Biology, 2022).

Where two headings read alike, the source gives them in different places.

For assay [1], the system named is meta-AAC0038. The settings on record: ternary complex with CoA; 10 mM apramycin, 20% PEG 3350, 50 mM ADA pH 7; catalytically inactive mutant; active site cleft.
Assay [2] has as its system meta-AAC0038. The settings on record: binary complex; catalytically inactive mutant.
Assay [3] deals with AAC(3)-IVa.
For assay [4], the target named is AAC(3)-IVa. Nature of the assay: crystal structure.

Sequence of meta-AAC0038 (A0A059X981 entry or part of it H168A): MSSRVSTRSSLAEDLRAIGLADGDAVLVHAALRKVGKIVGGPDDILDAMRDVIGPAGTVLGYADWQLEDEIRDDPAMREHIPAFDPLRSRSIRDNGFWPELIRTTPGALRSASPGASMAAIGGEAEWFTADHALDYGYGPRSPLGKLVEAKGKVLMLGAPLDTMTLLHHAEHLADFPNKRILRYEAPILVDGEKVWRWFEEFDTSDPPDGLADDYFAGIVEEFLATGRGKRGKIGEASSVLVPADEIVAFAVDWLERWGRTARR

As to `CN[C@@H]1[C@@H](O[C@H]2O[C@H](CO)[C@@H](N)[C@H](O)[C@H]2O)O[C@H]2C[C@@H](N)[C@@H](O[C@H]3[C@H](O)[C@@H](O)[C@H](N)C[C@@H]3N)O[C@@H]2[C@@H]1O` [APR, apramycin], the “X-ray crystal structure, co-crystallization” value with meta-AAC0038 [1] is “crystal structures of the ternary meta-AAC0038^H168A•apramycin•CoA”.
Consider `CC(=O)SCCNC(=O)CCNC(=O)[C@H](O)C(C)(C)COP(=O)(O)OP(=O)(O)OC[C@H]1O[C@@H](n2cnc3c(N)ncnc32)[C@H](O)[C@@H]1OP(=O)(O)O` [AcCoA, acetyl-CoA], for which the X-ray crystal structure result with meta-AAC0038 [2] is reported as “the binary meta-AAC0038^H168A•acetyl-CoA complexes”.
As a reminder, the stoichiometry N is the number of molecules, sites or subunits per partner or assembly. For the molecule AAC(3)-IVa (enzyme), the stoichiometry N in the assay with AAC(3)-IVa [3] and in the assay with AAC(3)-IVa [4] was 2 throughout.
